Data: ChEMBL document CHEMBL3885861, “Open TG-GATES”

Organism: Rattus norvegicus
Experiment: Open TG-GATES - Regimen: Single
Format: toxicity, organism-based, Sprague-Dawley
Set-up: regimen Single, gender Male, age 6 weeks
Details: in vivo, po, 100 mg/kg, route gavage, dose level High; for APTT / Bas / Eos / Fbg / Hb / Ht / Lym / MCH / MCHC / MCV / Mono / Neu / PT / Plat / RBC / Ret / WBC: tissue Blood; for KIDNEY_L / KIDNEY_R / KIDNEY_TOTAL: tissue Kidney; for LIVER: tissue Liver; for A/G / ALP / ALT / AST / BUN / CRE / Ca / Cl / DBIL / GLC / IP / K / LDH / Na / PL / RALB / TBIL / TC / TG / TP / gamma-GTP: tissue Plasma

CN(C)CCN(Cc1cccs1)c1ccccn1
TERMINAL_BW (3 h): 184.9 g | APTT (3 h): 21.5 s | Bas (3 h): 0% | Eos (3 h): 0.8% | Fbg (3 h): 290.4 mg/dL | Hb (3 h): 13.2 g/dL | Ht (3 h): 40.2% | Lym (3 h): 74% | MCH (3 h): 20.6 pg | MCHC (3 h): 32.9% | MCV (3 h): 62.8 fL | Mono (3 h): 2% | Neu (3 h): 22.2% | PT (3 h): 16.3 s | Plat (3 h): 121.5 x10_4/uL | RBC (3 h): 640.8 x10_4/ul | Ret (3 h): 7.2% | WBC (3 h): 60.8 x10_2/uL | KIDNEY_L (3 h): 0.8 g | KIDNEY_R (3 h): 0.9 g | KIDNEY_TOTAL (3 h): 1.7 g | LIVER (3 h): 8 g | A/G (3 h): 1.2 | ALP (3 h): 1601.8 IU/L | ALT (3 h): 54.6 IU/L | AST (3 h): 82.2 IU/L | BUN (3 h): 10.8 mg/dL | CRE (3 h): 0.1 mg/dL | Ca (3 h): 10.3 mg/dL | Cl (3 h): 106.6 meq/L | DBIL (3 h): 0.002 mg/dL | GLC (3 h): 185 mg/dL | IP (3 h): 8.3 mg/dL | K (3 h): 4.3 meq/L | LDH (3 h): 258.8 IU/L | Na (3 h): 142.4 meq/L | PL (3 h): 121.4 mg/dL | RALB (3 h): 2.9 g/dL | TBIL (3 h): 0.012 mg/dL | TC (3 h): 69.8 mg/dL | TG (3 h): 36 mg/dL | TP (3 h): 5.4 g/dL | gamma-GTP (3 h): 1 IU/L | TERMINAL_BW (6 h): 183.8 g | APTT (6 h): 21.3 s | Bas (6 h): 0% | Eos (6 h): 0.4% | Fbg (6 h): 282.2 mg/dL | Hb (6 h): 13.1 g/dL | Ht (6 h): 39.5% | Lym (6 h): 76% | MCH (6 h): 21.6 pg | MCHC (6 h): 33.3% | MCV (6 h): 64.8 fL | Mono (6 h): 2.4% | Neu (6 h): 20.6% | PT (6 h): 16.6 s | Plat (6 h): 120.5 x10_4/uL | RBC (6 h): 610 x10_4/ul | Ret (6 h): 8.4% | WBC (6 h): 73.4 x10_2/uL | KIDNEY_L (6 h): 0.8 g | KIDNEY_R (6 h): 0.8 g | KIDNEY_TOTAL (6 h): 1.7 g | LIVER (6 h): 7.5 g | A/G (6 h): 1.1 | ALP (6 h): 1538 IU/L | ALT (6 h): 51.2 IU/L | AST (6 h): 90.2 IU/L | BUN (6 h): 14.6 mg/dL | CRE (6 h): 0.2 mg/dL | Ca (6 h): 10.5 mg/dL | Cl (6 h): 107.4 meq/L | DBIL (6 h): 0.004 mg/dL | GLC (6 h): 170.2 mg/dL | IP (6 h): 9.4 mg/dL | K (6 h): 4.5 meq/L | LDH (6 h): 259.2 IU/L | Na (6 h): 141.8 meq/L | PL (6 h): 110 mg/dL | RALB (6 h): 2.8 g/dL | TBIL (6 h): 0.02 mg/dL | TC (6 h): 64.8 mg/dL | TG (6 h): 33.4 mg/dL | TP (6 h): 5.2 g/dL | gamma-GTP (6 h): 1 IU/L | TERMINAL_BW (9 h): 183.7 g | APTT (9 h): 21.3 s | Bas (9 h): 0% | Eos (9 h): 0.8% | Fbg (9 h): 284.6 mg/dL | Hb (9 h): 13.2 g/dL | Ht (9 h): 39.6% | Lym (9 h): 72.2% | MCH (9 h): 21.1 pg | MCHC (9 h): 33.3% | MCV (9 h): 63.5 fL | Mono (9 h): 3.6% | Neu (9 h): 22.6% | PT (9 h): 16.2 s | Plat (9 h): 122.3 x10_4/uL | RBC (9 h): 624.2 x10_4/ul | Ret (9 h): 7.6% | WBC (9 h): 71.6 x10_2/uL | KIDNEY_L (9 h): 0.8 g | KIDNEY_R (9 h): 0.9 g | KIDNEY_TOTAL (9 h): 1.7 g | LIVER (9 h): 7.8 g | A/G (9 h): 1.2 | ALP (9 h): 1538 IU/L | ALT (9 h): 60.2 IU/L | AST (9 h): 100.6 IU/L | BUN (9 h): 11 mg/dL | CRE (9 h): 0.1 mg/dL | Ca (9 h): 10.1 mg/dL | Cl (9 h): 107.6 meq/L | DBIL (9 h): 0 mg/dL | GLC (9 h): 172.8 mg/dL | IP (9 h): 9.7 mg/dL | K (9 h): 4.2 meq/L | LDH (9 h): 233.6 IU/L | Na (9 h): 141.8 meq/L | PL (9 h): 117 mg/dL | RALB (9 h): 2.9 g/dL | TBIL (9 h): 0.022 mg/dL | TC (9 h): 68 mg/dL | TG (9 h): 35 mg/dL | TP (9 h): 5.3 g/dL | gamma-GTP (9 h): 1.2 IU/L | TERMINAL_BW (24 h): 193.3 g | APTT (24 h): 20.8 s | Bas (24 h): 0% | Eos (24 h): 0.8% | Fbg (24 h): 275.2 mg/dL | Hb (24 h): 13 g/dL | Ht (24 h): 39.4% | Lym (24 h): 73.2% | MCH (24 h): 20.7 pg | MCHC (24 h): 32.9% | MCV (24 h): 62.9 fL | Mono (24 h): 2.8% | Neu (24 h): 22.2% | PT (24 h): 17.3 s | Plat (24 h): 114.4 x10_4/uL | RBC (24 h): 627 x10_4/ul | Ret (24 h): 7% | WBC (24 h): 61.6 x10_2/uL | KIDNEY_L (24 h): 0.8 g | KIDNEY_R (24 h): 0.9 g | KIDNEY_TOTAL (24 h): 1.7 g | LIVER (24 h): 9.1 g | A/G (24 h): 1.3 | ALP (24 h): 1813.6 IU/L | ALT (24 h): 68.4 IU/L | AST (24 h): 109.6 IU/L | BUN (24 h): 16 mg/dL | CRE (24 h): 0.2 mg/dL | Ca (24 h): 10.7 mg/dL | Cl (24 h): 106.6 meq/L | DBIL (24 h): 0.004 mg/dL | GLC (24 h): 172 mg/dL | IP (24 h): 7.8 mg/dL | K (24 h): 4.4 meq/L | LDH (24 h): 260.2 IU/L | Na (24 h): 143.2 meq/L | PL (24 h): 136 mg/dL | RALB (24 h): 2.9 g/dL | TBIL (24 h): 0.01 mg/dL | TC (24 h): 70.8 mg/dL | TG (24 h): 65.2 mg/dL | TP (24 h): 5.2 g/dL | gamma-GTP (24 h): 1 IU/L
